SMILES strings stand for the structures. Where two headings read alike, the source gives them in different places.

One test deals with S1P1 (Homo sapiens, UniProt P21453). Kind of test: [35S]-GTPγS binding assay, S1P1. It counts as biochemical. Particulars: for Emax: control S1P, read-out: S1P1 % Efficacy. Here is the method: (§1) Cell Membrane Preparations
(§2) CHO cells expressing recombinant S1P receptors were cultured 500 cm^2 culture trays and once confluent, rinsed and detached with cell-lifting buffer (10 mM HEPES, 154 mM NaCl, 6.85 mM EDTA, pH 7.4). Cells were then pelleted by centrifugation, resuspended, and homogenized in membrane preparation buffer (10 mM HEPES and 10 mM EDTA, pH 7.4) using a Polytron PT 1200E homogenizer (Kinematica, Luzern, Switzerland). Cellular proteins were pelleted by centrifugation at 48,000×g at 4° C. for 30 minutes. The resulting supernatant was discarded, and the pellet was re-suspended again in membrane preparation buffer, homogenized for a second time and then centrifuged again as described above. The final cellular protein pellet was suspended in ice cold resuspension buffer (10 mM HEPES and 0.1 mM EDTA, pH 7.4), divided into aliquots, and stored at −80° C. until use.
(§3) Binding assays for [^35S]-GTPγS were performed in 96-well non-binding surface plates with a final volume of 200 μL. The test compounds were serial diluted in DMSO and added to assay plates using a Tecan D300E digital printer with a total volume of 0.4 μL. The control sphingosine-1-phosphate (S1P) was prepared separately by preparing a 400 μM stock solution from a 100 nmol pellet of S1P in 10 mM Na2CO3 with 2% β-cyclodextrin. The serial dilution of S1P was done using complete assay buffer (20 mM HEPES, 10 mM MgCl2, 100 mM NaCl, 1 mM EDTA, 0.1% fatty acid free bovine serum albumin [BSA], and 30 μg/mL saponin, pH7.4) and transferred to wells already containing 0.4 μL DMSO. All the wells were then loaded to a total volume of 40 μL of complete assay buffer, except the non-specific binding (NSB) wells. For NSB wells, 40 µL/well of 50 μM GTPγS (Sigma Aldrich, cat #G8634, St. Louis, MO) was added to wells containing 0.4 μL of DMSO. The assay was started by the addition of 120 μL/well of CHO—S1P receptor membrane solution containing 40 μg/mL of membrane protein, 16.67 μM guanosine diphosphate (GDP; Sigma Aldrich, cat #G7127, St. Louis, MO), and 2.5 mg/mL of WGA PVT SPA beads in complete buffer. Assay plates were then sealed and incubated at room temperature with gentle agitation for 30 minutes. Next, 40 μL/well of 1 nM of [^35S]-GTPγS (PerkinElmer, cat #NEG030X250UC, Waltham, MA) in basic assay buffer (20 mM HEPES, 10 mM MgCl2, 100 mM NaCl, and 1 mM EDTA, pH7.4) was added to the assay plates to yield a final concentration of […] and the plates were further incubated for 40 minutes at room temperature with gentle agitation. The assay was terminated by centrifugation of the plates at 1000 rpm for 3 minutes using an Eppendorf 5810R centrifuge (Eppendorf, Hamburg, Germany) and G protein bound radioactivity was quantitated using a MicroBeta2 microplate scintillation counter (PerkinElmer, Waltham, MA).

For the next test, the target named is S1P5 (Homo sapiens, UniProt Q9H228). Kind of test: [35S]-GTPγS binding assay, S1P5. Particulars: membranes of CHO cells expressing recombinant S1P receptors; for Emax: control S1P, read-out: S1P5 % Efficacy. The format is biochemical. Here is the method:
as §1, §2, §3
A general note: GTPγS resists hydrolysis and so accumulates on activated G proteins.

[1] abbreviates: membranes of CHO cells expressing recombinant S1P receptors, [35S]-GTPγS binding.
Setting [2] is: membranes of CHO cells expressing recombinant S1P receptors, [35S]-GTPγS binding, read-out: S1P1 EC50.

Chain of S1P1 (P21453 whole entry, species assumed): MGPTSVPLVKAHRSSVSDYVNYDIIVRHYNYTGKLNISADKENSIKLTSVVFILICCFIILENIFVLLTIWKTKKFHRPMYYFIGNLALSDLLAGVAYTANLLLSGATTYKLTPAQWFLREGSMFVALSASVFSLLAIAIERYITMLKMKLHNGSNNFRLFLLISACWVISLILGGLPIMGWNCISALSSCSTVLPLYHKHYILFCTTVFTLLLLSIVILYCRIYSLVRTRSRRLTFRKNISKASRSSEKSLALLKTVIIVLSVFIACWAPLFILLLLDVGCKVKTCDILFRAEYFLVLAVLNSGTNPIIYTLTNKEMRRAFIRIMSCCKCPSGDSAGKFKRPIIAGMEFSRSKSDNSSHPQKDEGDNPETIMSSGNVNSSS
Chain of S1P5 (Q9H228 whole entry, species assumed): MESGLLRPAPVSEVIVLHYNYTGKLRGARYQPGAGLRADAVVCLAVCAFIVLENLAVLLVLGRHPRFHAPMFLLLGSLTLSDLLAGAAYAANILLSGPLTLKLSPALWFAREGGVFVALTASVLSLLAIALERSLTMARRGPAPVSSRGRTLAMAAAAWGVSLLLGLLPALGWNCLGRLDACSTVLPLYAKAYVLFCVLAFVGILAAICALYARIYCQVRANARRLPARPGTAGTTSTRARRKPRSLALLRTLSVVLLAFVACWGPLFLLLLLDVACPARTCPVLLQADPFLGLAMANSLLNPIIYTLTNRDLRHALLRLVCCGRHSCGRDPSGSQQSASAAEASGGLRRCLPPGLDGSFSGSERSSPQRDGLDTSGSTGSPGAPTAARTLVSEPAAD

For the compound `CC(C)Oc1ccc(-c2nc(-c3cccc4c3CCC4=NOCCC(=O)O)no2)cc1C#N` (stereo in doubt) [Compound 7, (E)-3-(((4-(5-(3-cyano-4-isopropoxyphenyl)-1,2,4-oxadiazol-3-yl)-2,3-dihydro-1H-inden-1-ylidene)amino)oxy)propanoic acid], the Emax on S1P1 (setting [1]) is 89%; on S1P5 it was 29%. Also, the figures for the EC50 on S1P1 (setting [2]) and on S1P5 were 336 nM and 30 nM, respectively.

As for `CC(C)Oc1ccc(-c2nc(-c3cccc4c3CC/C4=N/OC(C)(C)C)no2)cc1C#N` [Compound 5, (Z)-5-(3-(1-(tert-butoxyimino)-2,3-dihydro-1H-inden-4-yl)-1,2,4-oxadiazol-5-yl)-2-isopropoxybenzonitrile], the Emax on S1P1 (setting [1]) came to 98%; at S1P5 it was 79%. The values for the EC50 at S1P1 (setting [2]) and on S1P5 were 20 nM and 78 nM, respectively.

In the case of `CC(C)Oc1ccc(-c2nc(-c3cccc4c3CC/C4=N/OCC(=O)O)no2)cc1C#N` [Compound 6, (Z)-2-(((4-(5-(3-cyano-4-isopropoxyphenyl)-1,2,4-oxadiazol-3-yl)-2,3-dihydro-1H-inden-1-ylidene)amino)oxy)acetic acid], the results for the EC50 on S1P1 and at S1P5 were 19 nM and greater than 2000 nM, respectively. At S1P1 (setting [1]), the Emax was 90%.

As to `CC(C)Oc1ccc(-c2nc(-c3cccc4c3CC/C4=N/OCCN(C)C)no2)cc1C#N` [Compound 8], the Emax on S1P1 (setting [1]) turned out to be 90%; on S1P5, 64%. The EC50 (as a rule, the concentration that produces a half-maximal response) was 8 nM on S1P1 (setting [2]) and 15 nM on S1P5.

Turning to `CC(C)Oc1ccc(-c2nc(-c3cccc4c3CC/C4=N/O)no2)cc1C#N` [Compound 10, (Z)-5-(3-(1-(hydroxyimino)-2,3-dihydro-1H-inden-4-yl)-1,2,4-oxadiazol-5-yl)-2-isopropoxybenzonitrile], the Emax on S1P1 (setting [1]) was determined as 97%; on S1P5 it was 58%. The EC50 at S1P1 (setting [2]) turned out to be 4 nM; on S1P5, 6 nM.

Turning to `CC(C)Oc1ccc(-c2nc(-c3cccc4c3CC/C4=N/OCCCC(=O)O)no2)cc1C#N` [Compound 11, (Z)-4-(((4-(5-(3-cyano-4-isopropoxyphenyl)-1,2,4-oxadiazol-3-yl)-2,3-dihydro-1H-inden-1-ylidene)amino)oxy)butanoic acid], the Emax at S1P1 (setting [1]) and on S1P5 was 85% each time. Besides, the EC50 was 6 nM at S1P1 (setting [2]) and 80 nM at S1P5.
